Measurements taken from patent publication US4035381A, “Antibacterial agents” (priority 1976, dated 1977).
Converted amounts (≈) assume the structure as drawn. “And” between values parts separate entries of the source, which are not always exact repeats. Equal entries are not always repeated. Structures can show the parent of a compound that is named as a salt. Where two headings read alike, the source gives them in different places.

Experiments:
[1] = tested on: Str. pneumoniae A9585; assay: Antibiotic activity in nutrient broth (MIC), Str. pneumoniae; type: cell-based; conditions: Streptococcus pneumoniae, 45% AAB + 5% serum + 50% broth, 10^-3 dilution of overnight culture, Ex. 1/Ex. 2 figures recalculated on penicillin content
Excerpt: (§1) ANTIBIOTIC ACTIVITY IN NUTRIENT BROTH
(§2) *45% AAB + 5% serum + 50% broth
(§3) **Dilution of overnight broth culture
(§4) +These figures were […] on the basis that there was only 60.61%
(§5) amoxicillin in the sample; in other words, the numerical values were
(§6) lowered, i.e. improved.
(§7) ----//These figures were recalculated on the basis that there was only

[2] = tested on: Str. pyogenes A9604; assay: Antibiotic activity in nutrient broth (MIC), Str. pyogenes; type: cell-based; conditions: Streptococcus pyogenes, 45% AAB + 5% serum + 50% broth, 10^-3 dilution of overnight culture, Ex. 1/Ex. 2 figures recalculated on penicillin content
Excerpt: as §1, §2, §3, §4, §5, §6, §7

[3] = tested on: S. aureus Smith A9537; assay: Antibiotic activity in nutrient broth (MIC), S. aureus Smith; type: cell-based; conditions: Staphylococcus aureus, 10^-4 dilution, Ex. 1/Ex. 2 figures recalculated on penicillin content
Excerpt: as §1, §3, §4, §5, §6, §7

[4] = tested on: S. aureus bx 1633 A9606; assay: Antibiotic activity in nutrient broth (MIC), S. aureus bx 1633; type: cell-based; conditions: Ex. 1/Ex. 2 figures recalculated on penicillin content
[5] = tested on: S. aureus Meth.-res. A15097; assay: Antibiotic activity in nutrient broth (MIC), S. aureus Meth.-res.; type: cell-based; conditions: Staphylococcus aureus
[6] = tested on: Sal. enteritidis A9531; assay: Antibiotic activity in nutrient broth (MIC), Sal. enteritidis; type: cell-based; conditions: Salmonella enterica, 10^-4 dilution, Ex. 1/Ex. 2 figures recalculated on penicillin content
Excerpt: as §1, §3, §4, §5, §6, §7

[7] = tested on: E. coli Juhl A15119; assay: Antibiotic activity in nutrient broth (MIC), E. coli Juhl; type: cell-based; conditions: Escherichia coli, JUHLA15119, 10^-4 dilution, Ex. 1/Ex. 2 figures recalculated on penicillin content
Excerpt: as §1, §3, §4, §5, §6, §7

[8] = tested on: E. coli A9675; assay: Antibiotic activity in nutrient broth (MIC), E. coli A9675; type: cell-based; conditions: Escherichia coli, 10^-4 dilution, Ex. 1/Ex. 2 figures recalculated on penicillin content
Excerpt: as §1, §3, §4, §5, §6, §7

[9] = tested on: K. pneumoniae A9977; assay: Antibiotic activity in nutrient broth (MIC), K. pneumoniae A9977; type: cell-based; conditions: Klebsiella pneumoniae, 10^-4 dilution, Ex. 1/Ex. 2 figures recalculated on penicillin content
Excerpt: as §1, §3, §4, §5, §6, §7

[10] = tested on: K. pneumoniae A15130; assay: Antibiotic activity in nutrient broth (MIC), K. pneumoniae A15130; type: cell-based; conditions: Klebsiella pneumoniae
[11] = tested on: Pr. mirabilis A9900; assay: Antibiotic activity in nutrient broth (MIC), Pr. mirabilis; type: cell-based; conditions: Proteus mirabilis, 10^-4 dilution, Ex. 1/Ex. 2 figures recalculated on penicillin content
Excerpt: as §1, §3, §4, §5, §6, §7

[12] = tested on: Pr. morganii A15153; assay: Antibiotic activity in nutrient broth (MIC), Pr. morganii; type: cell-based; conditions: Morganella morganii, 10^-4 dilution, Ex. 1/Ex. 2 figures recalculated on penicillin content
[13] = tested on: Ps. aeruginosa A9843A; assay: Antibiotic activity in nutrient broth (MIC), Ps. aeruginosa; type: cell-based; conditions: Pseudomonas aeruginosa
[14] = tested on: Ser. marcescens A20019; assay: Antibiotic activity in nutrient broth (MIC), Ser. marcescens; type: cell-based; conditions: Serratia marcescens, 10^-4 dilution, Ex. 1/Ex. 2 figures recalculated on penicillin content
Excerpt: as §1, §3, §4, §5, §6, §7

[15] = tested on: Ent. cloacae A9656; assay: Antibiotic activity in nutrient broth (MIC), Ent. cloacae A9656; type: cell-based; conditions: Enterobacter cloacae, 10^-4 dilution, Ex. 1/Ex. 2 figures recalculated on penicillin content
[16] = tested on: Ent. cloacae A9657; assay: Antibiotic activity in nutrient broth (MIC), Ent. cloacae A9657; type: cell-based; conditions: Enterobacter cloacae, 10^-4 dilution, Ex. 1/Ex. 2 figures recalculated on penicillin content
[17] = tested on: Ent. cloacae A9659; assay: Antibiotic activity in nutrient broth (MIC), Ent. cloacae A9659; type: cell-based; conditions: Enterobacter cloacae, 10^-4 dilution, Ex. 1/Ex. 2 figures recalculated on penicillin content
[18] = Stability of reconstituted aqueous solution; type: physicochemical
[19] = Hydrolysis to parent penicillin (paper strip and liquid chromatography); type: in vitro ADME; conditions: 0.2 mg./ml., pH 6.5-7.0 buffer or serum; for hydrolysis in water to parent penicillin: room temperature and 37° C.
[20] = Bioassay; conditions: theory 730 (Ex. 1) / 596 (Ex. 2) mcg./mg.
[21] = Oral and intramuscular rat blood levels; type: in vivo
[22] = In vitro antibacterial spectrum / activity; type: cell-based; conditions: vs amoxicillin (Ex. 1) or ampicillin (Ex. 2)
[23] = Hygroscopicity; type: physicochemical; conditions: solid product
[24] = Mouse blood levels after oral administration; conditions: 100 mg./kg., tested twice, average of 6 mice each
[25] = Mouse blood levels after intramuscular administration; conditions: 10 mg./kg., average of six animals, unit assumed
[26] = cited from earlier work
[27] = prior-art salt; cited from earlier work
[28] = in vivo, iv; cited from earlier work
[29] = SMITHA9537, nutrient broth, no serum
[30] = Staphylococcus aureus, BX1633A9606, 10^-3 dilution, read-out: MIC
[31] = 3.5 hours, in µg/mL (unit assumed)

| Structure (SMILES) | MIC [1] [µg/mL] | MIC [2] [µg/mL] | MIC ([3]; SMITHA9537, +50% serum) [µg/mL] | MIC [3, 29] [µg/mL] | MIC [6] [µg/mL] | MIC [7] [µg/mL] | MIC [8] [µg/mL] | MIC [9] [µg/mL] | MIC [11] [µg/mL] | MIC [14] [µg/mL] | MIC [16] [µg/mL] | MIC [17] [µg/mL] | Mouse blood level ([25]; 0.25 hours) [µg/mL] | Mouse blood level ([25]; 0.5 hours) [µg/mL] | Mouse blood level ([25]; 1 hour) [µg/mL] | Mouse blood level ([25]; 1.5 hours) [µg/mL] | also measured |
| --- | --- | --- | --- | --- | --- | --- | --- | --- | --- | --- | --- | --- | --- | --- | --- | --- | --- |
| CC1(C)S[C@@H]2[C@H](N3C(=O)[C@@H](c4ccc(O)cc4)NC3c3ccc(S(=O)(=O)O)o3)C(=O)N2[C@H]1C(=O)O (mixture of isomers) [Example 1, Disodium 6-[D(-)2-(±)5-Sulfo-2-furyl-5-oxo-4-p-hydroxyphenyl-1-imidazolidinyl]penicillanate] | 0.0005 | 0.0005 | 0.13 | 0.06 | 0.13 | 1 | 16 | 0.13 | 0.25 | 32 | 63 | 63 | 7.3 | 5.4 | 2.1 | 1.1 | MIC ([4]; 10^-2 dilution): > 125 µg/mL; MIC [4, 30]: > 125 µg/mL; MIC [5]: > 125 µg/mL; MIC [10]: 125 µg/mL; MIC [12]: > 125 µg/mL; MIC [13]: > 125 µg/mL; MIC [15]: > 125 µg/mL; stable at room temperature (diluted solution) ([18]; 10 to 20 mg./ml. of activity): at least 24 hours; hydrolysis in water to parent penicillin [19]: rapidly hydrolyzes in water to amoxicillin; Bioassay [20]: 696 µg/mg; Intramuscular rat blood levels compared with parent penicillin [21]: substantially equal to those of amoxicillin; Oral rat blood levels compared with parent penicillin [21]: substantially equal to those of amoxicillin; in vitro antibacterial spectrum compared with parent penicillin [22]: substantially equivalent to that of amoxicillin; hygroscopicity [23]: nonhygroscopic; Blood level ([24]; 0.5 hours, listed as Ex. 1, in µg/mL (unit assumed)): 6.3 and 9.5; Blood level ([24]; 1 hour, listed as Ex. 1, in µg/mL (unit assumed)): 7.2 and 10.4; Blood level ([24]; 2 hours, listed as Ex. 1, in µg/mL (unit assumed)): 3.9 and 4.9; Blood level [24, 31]: 1.1 |
| CC1(C)S[C@@H]2[C@H](N3C(=O)[C@@H](c4ccccc4)NC3c3ccc(S(=O)(=O)O)o3)C(=O)N2[C@H]1C(=O)O (mixture of isomers) [Example 2, Disodium 6-[D(-)2-(±)5-Sulfo-2-furyl-5-oxo-4-phenyl-1-imidazolidinyl]penicillanate] | 0.004 | 0.004 | 0.06 | 0.06 | 0.013 | 2 | 16 | 0.5 | 0.13 | 32 | 32 | 63 | 6.3 | 3.7 | 1.3 | 0.6 | MIC ([4]; 10^-2 dilution): > 125 µg/mL; MIC [4, 30]: > 125 µg/mL; MIC [5]: > 125 µg/mL; MIC ([10]; nutrient broth, 10^-4 dilution, Ex. 1/Ex. 2 figures recalculated on penicillin content, read-out: MIC): 63 µg/mL; MIC [12]: > 125 µg/mL; MIC [13]: > 125 µg/mL; MIC [15]: > 125 µg/mL; stable at room temperature (reconstituted aqueous solution) ([18]; 250 mg./ml. of activity): at least 24 hours; hydrolysis in water to parent penicillin [19]: rapidly hydrolyzes in water; hydrolyzed at 0 time by liquid chromatography ([19]; to ampicillin, 0 time): 60-70%; Bioassay [20]: 578 µg/mg; Intramuscular rat blood levels compared with parent penicillin [21]: substantially equal to those of ampicillin; Oral rat blood levels compared with parent penicillin [21]: substantially equal to those of ampicillin; in vitro antibacterial spectrum compared with parent penicillin [22]: substantially equivalent to that of ampicillin; hygroscopicity [23]: non-hygroscopic; Blood level ([24]; 1 hour, listed as Ex. 2, in µg/mL (unit assumed)): 2.8 and 5.2; Blood level ([24]; 2 hours, listed as Ex. 2, in µg/mL (unit assumed)): 1.4 and 2.2; Blood level ([24]; 3.5 hours, listed as Ex. 2, in µg/mL (unit assumed)): 0.4 and 0.6 |
| CC1(C)S[C@@H]2[C@H](NC(=O)[C@H](N)c3ccc(O)cc3)C(=O)N2[C@H]1C(=O)O [Amoxicillin, D(-)-α-amino-p-hydroxybenzylpenicillin, reference compound] | ≤ 0.002 | ≤ 0.002 | 0.008 (≈ 0.0219 µM) | 0.008 (≈ 0.0219 µM) | 0.008 (≈ 0.0219 µM) | 0.5 (≈ 1.37 µM) | 8 (≈ 21.9 µM) |  | ≤ 0.016 | 16 (≈ 43.8 µM) | 63 (≈ 172 µM) |  | 7.7 | 4.3 | 1.9 | 0.6 | Blood level ([24]; 0.5 hours, in µg/mL (unit assumed)): 7.9 and 13.9; Blood level ([24]; 1 hour, in µg/mL (unit assumed)): 7.4 and 12.4; Blood level ([24]; 2 hours, in µg/mL (unit assumed)): 4.6 and 5.8; Blood level [24, 31]: 1.5 and 0.8 |
| CC1(C)S[C@@H]2[C@H](NC(=O)[C@H](N)c3ccccc3)C(=O)N2[C@H]1C(=O)O [Ampicillin, D(-)-α-aminobenzyl-penicillin, reference compound] | 0.008 | 0.008 | 0.13 (≈ 0.372 µM) | 0.13 (≈ 0.372 µM) | 0.013 (≈ 0.0372 µM) | 2 (≈ 5.72 µM) | 16 (≈ 45.8 µM) | 0.25 (≈ 0.715 µM) | 0.25 (≈ 0.715 µM) | 32 (≈ 91.6 µM) | 32 (≈ 91.6 µM) | 63 (≈ 180 µM) |  |  |  |  |  |
| CC1(C)S[C@@H]2[C@H](N3C(=O)[C@@H](c4ccccc4)NC3(C)C)C(=O)N2[C@H]1C(=O)O [hetacillin] |  |  |  |  |  |  |  |  |  |  |  |  |  |  |  |  | stability in aqueous solution compared with parent penicillins ([26]; as sodium salts): somewhat more stable |
| CC1(C)S[C@@H]2[C@H](NC(=O)[C@H](N)c3ccc(O)cc3)C(=O)N2[C@H]1C(=O)O [potassium salt] |  |  |  |  |  |  |  |  |  |  |  |  |  |  |  |  | stable (reconstituted with water) ([26]; 250 mg./ml., room temperature): 15 min; precipitation from solution on standing ([26]; reconstituted with water, 250 mg./ml.): precipitates out of solution on standing |
| CC1(C)S[C@@H]2[C@H](NC(=O)[C@H](N)c3ccccc3)C(=O)N2[C@H]1C(=O)O [sodium salt of ampicillin] |  |  |  |  |  |  |  |  |  |  |  |  |  |  |  |  | shelf-life of aqueous solution ([26]; room temperature, reconstituted at 250 mg./ml.): about one; hygroscopicity [27]: hygroscopic; irritation on injection [28]: somewhat irritating on injection |
